Assays:
[1] = target: T1, bovine β 1-AR (Bos taurus, UniProt Q9TT96); assay: cAMP induction in CHO cells transfected with bovine β 1-AR construct (LANCE cAMP kit); assay type: cell-based; settings: 45 min, 5 mM theophylline, ND = cAMP not detected or insufficient for EC50
T1 construct: expressed in transfected cells; host or cells: Chinese hamster ovary (CHO) cells, pcDNA3.1+ vector
Description: (§1) Chinese Hamster Overy cells were transfected with either the bovine β 1-, β 2-, or β 3-AR constructs in pcDNA3.1+. Expression of the β-AR was confirmed by polymerase chain reaction (PCR). Thereafter, cells were grown in DMEM/Ham’s F12 media with 10% FBS and 1% penicillin/streptomycin at 37 °C under 5% CO2. Opti-plates (Perkin Elmer, Waltham, MA) were used for all experiments. For each experiment, cells were plated into 96-well tissue culture plates at 60,000 cells per well in a volume of 100 µL media. Cells were grown for 48 hr after plating prior to ligand addition and determination of cAMP.
(§2) All samples and standards were tested in duplicate for each repetition, and 4 repetitions per cell line were performed for each potential ligand tested. Controls included no treatment (media alone), 5 mM theophylline alone (an inhibitor of phosphodiesterase), 0.1 % DMSO alone, and water alone. None of the controls differed from media alone and are thus not reported. A volume of media equal to the volume of test material to be added was removed from the well just prior to stimulation. Theophylline was added in a volume of 25 µL to obtain a final concentration of 5 mM and each test molecule was delivered in 10 µL. Cells were returned to 37 °C and allowed to incubate for 45 min before media was removed and the cells lysed in 38 µL lysis buffer A. The LANCE cAMP detection kit (AD0262E) was purchased from Perkin Elmer. The LANCE assay instructions were followed for a 40 µL reaction volume with 15 µL of cell lysate. The reaction was incubated for 20 hr prior to measuring fluorescence. A standard curve was generated with increasing concentrations of cAMP, and the linear portion of the curve was used to calculate sample cAMP concentrations.

[2] = system: bovine s.c. adipose tissue; assay: Lipolysis: NEFA release, s.c. adipose tissue explants; assay type: cell-based, bovine (Angus cross steers); settings: 30 min; for NEFA: s.c., mean ± SEM, baseline 0.99 ± 0.40
[3] = system: bovine i.m. adipose tissue; assay: cAMP in i.m. adipose tissue explants (Cyclic AMP XP Assay Kit); assay type: cell-based, bovine (Angus cross steers); settings: 30 min; for cAMP: i.m., mean ± SEM, n = 6 steers, baseline 0.64 ± 0.19
Description: (§3) Fresh s.c. adipose tissue was cut into small pieces (50 to 100 mg, actual weight recorded) and i.m. adipose tissue was dissected from the LM as described previously ([Smith and Crouse, 1984]; [Miller et al., 1988]) and weighed. The s.c. and i.m. adipose samples were incubated according to 3 different sets of experimental conditions. Experiment 1: Small pieces of s.c. and i.m. adipose tissues (50 to 100 mg; 1 to 2 mm thick; [Smith and Prior, 1981]) were preincubated in 6-well tissue culture plates in a CO2/O2 incubator (NuAire model 4750 CO2 incubator, Plymouth, MN) for 30 min at 37 °C, 5% CO2 in KHB plus 5 mM glucose, 10 mM HEPES, and 0.5 mM theophylline. […] Experiment 2: The s.c. and i.m. adipose samples were preincubated in KHB plus 5 mM glucose, 10 mM HEPES, and 0.5 mM theophylline in the presence or absence of either 10 µM L-748,337 (β 3-AR antagonist) or 50 µM PRO (β-AR pan-antagonist). […] After the 30 min preincubation, either DOB (β 1-AA) or SAL (β 2-AA) was added to the culture plate wells in a concentration-dependent manner (10^–9 to 10^–4 M) for an additional 30 min. For all experiments, there were at least 3 replicate wells per treatment condition. After a total of 1-hr incubation, the adipose samples were homogenized in 1 mL cell lysis buffer (Cell Signaling Technology, Danvers, MA) with 1 mM phenymethylsulfony fluoride, and centrifuged at 14,000 × g for 30 min to remove tissue debris. The supernatant fractions were stored at −80 °C until subsequent analyses were performed.
(§4) The concentration of cAMP was determined based on the principle of competitive binding using the Cyclic AMP XP Assay Kit according to the manufacturer’s instructions. Cytosolic extracts from the adipose explants were co-incubated at room temperature for 3 hr in 96-well plates with the HRP-linked cAMP substrate coated onto an immobilized rabbit monoclonal cAMP antibody using a horizontal orbital plate shaker. After the reaction, color development was measured at 450 nm using an Epoch microplate reader (Biotek Instruments, Winooski, VT). All samples were analyzed in duplicate. A standard curve and cAMP concentrations were calculated using GrapPad Prism 6.04 software (GraphPad Software Inc., San Diego, CA).

[4] = system: bovine s.c. adipose tissue; assay: cAMP in s.c. adipose tissue explants (Cyclic AMP XP Assay Kit); assay type: cell-based, bovine (Angus cross steers); settings: 30 min; for cAMP: s.c., mean ± SEM, n = 6 steers, baseline 0.42 ± 0.06
Description: as §3, §4

[5] = system: bovine s.c. adipose tissue; assay: Lipolysis: glycerol release, s.c. adipose tissue explants; assay type: cell-based, bovine (Angus cross steers); settings: s.c., 30 min, mean ± SEM, baseline 50.0 ± 12.8
[6] = target: T2, bovine β 3-AR (Bos taurus, UniProt P46626); assay: cAMP induction in CHO cells transfected with bovine β 3-AR construct (LANCE cAMP kit); assay type: cell-based; settings: 45 min, 5 mM theophylline
T2 construct: expressed in transfected cells; host or cells: Chinese hamster ovary (CHO) cells, pcDNA3.1+ vector
T2 sequence (P46626 whole entry): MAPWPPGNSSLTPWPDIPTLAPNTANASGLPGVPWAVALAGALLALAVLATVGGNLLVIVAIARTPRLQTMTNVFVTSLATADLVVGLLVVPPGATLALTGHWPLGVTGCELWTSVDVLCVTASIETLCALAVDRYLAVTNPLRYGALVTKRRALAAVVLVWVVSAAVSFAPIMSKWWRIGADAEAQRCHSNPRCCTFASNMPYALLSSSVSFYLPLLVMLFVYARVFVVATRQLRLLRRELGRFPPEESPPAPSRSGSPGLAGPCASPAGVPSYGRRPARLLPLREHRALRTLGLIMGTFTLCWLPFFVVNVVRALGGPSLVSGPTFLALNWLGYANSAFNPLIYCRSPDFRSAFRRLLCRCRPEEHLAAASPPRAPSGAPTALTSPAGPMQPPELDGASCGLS
Description: as §1, §2

[7] = system: bovine i.m. adipose tissue; assay: Lipolysis: NEFA release, i.m. adipose tissue explants; assay type: cell-based, bovine (Angus cross steers); settings: 30 min; for NEFA: i.m., mean ± SEM, baseline 0.65 ± 0.20
[8] = system: bovine i.m. adipose tissue; assay: Lipolysis: glycerol release, i.m. adipose tissue explants; assay type: cell-based, bovine (Angus cross steers); settings: 30 min; for Glycerol: i.m., mean ± SEM, baseline 48.6 ± 10.3

T1 sequence (Q9TT96 whole entry): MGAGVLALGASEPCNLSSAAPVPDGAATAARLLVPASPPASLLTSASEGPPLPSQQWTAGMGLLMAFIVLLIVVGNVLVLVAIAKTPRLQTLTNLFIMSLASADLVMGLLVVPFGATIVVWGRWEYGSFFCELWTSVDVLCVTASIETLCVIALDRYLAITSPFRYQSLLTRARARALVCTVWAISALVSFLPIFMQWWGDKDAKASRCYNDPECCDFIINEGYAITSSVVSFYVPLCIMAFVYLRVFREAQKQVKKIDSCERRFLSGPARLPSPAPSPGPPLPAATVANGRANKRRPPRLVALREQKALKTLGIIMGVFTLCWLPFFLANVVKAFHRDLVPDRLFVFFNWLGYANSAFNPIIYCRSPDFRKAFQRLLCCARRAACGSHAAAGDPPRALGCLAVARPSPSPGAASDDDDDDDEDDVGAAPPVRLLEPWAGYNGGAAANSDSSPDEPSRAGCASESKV

EC50 [1]: 2 nM | EC50 [6]: 24 nM
Structure (SMILES): CC(CCc1ccc(O)cc1)NCC(O)c1ccc(O)cc1.Cl (racemic) [RAC, ractopamine hydrochloride]
Effect on NEFA release (in words) ([2]; s.c. adipose tissue): Neither RAC nor ZIL affected cAMP production or glycerol or NEFA release | NEFA ([2]; 10^–6 M ligand): 1.06 ± 0.13 µmol/100 mg tissue | NEFA ([2]; 10^–7 M ligand): 1.20 ± 0.21 µmol/100 mg tissue | NEFA ([2]; 10^–8 M ligand): 1.10 ± 0.15 µmol/100 mg tissue | Effect on cAMP (in words) ([3]; i.m. adipose tissue, ligand alone): Neither RAC nor ZIL (10^–8 to 10^–6 M) affected cAMP concentrations | cAMP ([3]; 10^–6 M ligand): 0.70 ± 0.18 pmol/100 mg tissue | cAMP ([3]; 10^–7 M ligand): 0.76 ± 0.18 pmol/100 mg tissue | cAMP ([3]; 10^–8 M ligand): 0.86 ± 0.22 pmol/100 mg tissue | Effect on cAMP (in words) ([4]; s.c. adipose tissue, ligand alone): Neither RAC nor ZIL (10^–8 to 10^–6 M) affected cAMP concentrations | cAMP ([4]; 10^–6 M ligand): 0.44 ± 0.14 pmol/100 mg tissue | cAMP ([4]; 10^–7 M ligand): 0.38 ± 0.08 pmol/100 mg tissue | cAMP ([4]; 10^–8 M ligand): 0.39 ± 0.09 pmol/100 mg tissue | Glycerol ([5]; 10^–6 M ligand): 63.3 ± 9.20 nmol/100 mg tissue | Glycerol ([5]; 10^–7 M ligand): 52.6 ± 11.1 nmol/100 mg tissue | Glycerol ([5]; 10^–8 M ligand): 50.3 ± 7.60 nmol/100 mg tissue | Effect on NEFA release (in words) ([7]; i.m. adipose tissue): Neither RAC nor ZIL affected cAMP production or glycerol or NEFA release | NEFA ([7]; 10^–6 M ligand): 0.56 ± 0.13 µmol/100 mg tissue | NEFA ([7]; 10^–7 M ligand): 1.18 ± 0.50 µmol/100 mg tissue | NEFA ([7]; 10^–8 M ligand): 0.75 ± 0.21 µmol/100 mg tissue | Effect on glycerol release (in words) ([8]; i.m. adipose tissue): Neither RAC nor ZIL affected cAMP production or glycerol or NEFA release | Glycerol ([8]; 10^–6 M ligand): 42.6 ± 11.4 nmol/100 mg tissue | Glycerol ([8]; 10^–7 M ligand): 81.7 ± 25.5 nmol/100 mg tissue | Glycerol ([8]; 10^–8 M ligand): 52.4 ± 16.4 nmol/100 mg tissue
